Common to all, as to type: cell-based
Assay [1] has as its system Escherichia coli ATCC2592. The assay can be described thus: Antimicrobial activity assay, MIC by broth microdilution. Particulars: 35° C., 20 to 24 h. On the procedure:
(§1) The antibacterial activity of compounds is determined by the minimal inhibitory concentration (MIC) method. MICs for all bacteria except pneumococci and Haemophilus influenzae are obtained by broth microdilution with cation-adjusted Mueller-Hinton broth (CAMHB; BBL), according to CLSI guidelines (National Committee for Clinical Laboratory Standards. 2003. Methods for dilution antimicrobial susceptibility tests for bacteria that grow aerobically, 5th ed.; a approved standard M7-A6. National Committee for Clinical Laboratory Standards, Wayne, Pa.), with the following modifications: (i) for pneumococci CAMHB is supplemented with 5% (^v/v) horse serum; (ii) for Haemophilus influenzae CAMHB is supplemented with 5% (^v/v) Fildes enrichment (BBL) (Pankuch, G. A., Hoellman, D. B., Lin, G., Bajaksouzian, S., Jacobs, M. R., and Appelbaum, P. C. 1998. Activity of HMR 3647 compared to those of five agents against Haemophilus influenzae and Moraxella catarrhalis by MIC determination and time-kill assay. Antimicrob. Agents Chemother. 42:3032-3034). Microtiter plates are incubated at 35° C. in ambient air for 20 to 24 h, then inspected using an illuminated microtiter plate reader fitted with a magnifying mirror (MIC 2000; Cooke Laboratory Products, Alexandria, Va.). Compounds of the present invention are tested against several bacteria strains comprising some Acinetobacter baumannii, Enterococcus faecalis, Enterococcus faecium, Escherichia coli, Haemophilus influenzae, Klebsiella pneumoniae, Pseudomonas aeruginosa, Staphylococcus aureus, Staphylococcus epidermidis, Streptococcus pyogenes; Enterobacter aerogenes; Enterobacter cloacae and Streptococcus pneumoniae. All exemplified compounds have a MIC values for Staphylococcus aureus ATCC29213, Staphylococcus epidermidis ATCC14990 and Streptococcus pneumoniae ATCC49619 lower or equal to 8 mg/L except examples 25 and 56 for Staphylococcus epidermidis ATCC14990 and examples 20, 49, 51, 56, 58, 60, 66 and 76 for Streptococcus pneumoniae ATCC4961.
(In broth dilution the organism is exposed to a series of concentrations in liquid medium.)

For assay [2], the system named is Streptococcus pneumoniae ATCC49619. The assay can be described thus: Antimicrobial activity assay, MIC by broth microdilution (CAMHB with 5% horse serum). The settings on record: 35° C., 20 to 24 h. The method, then: as §1
The subject of assay [3] is Staphylococcus aureus and/or Staphylococcus epidermidis and/or Streptococcus pneumoniae and/or Escherichia coli. The assay can be described thus: MIC, summary statement for staphylococci, pneumococci and E. coli. Particulars: 'generally'. The method, then:
(§2) The antibacterial activity of compounds is determined by the minimal inhibitory concentration (MIC) method. MICs for all bacteria except pneumococci and Haemophilus influenzae are obtained by broth microdilution with cation-adjusted Mueller-Hinton broth (CAMHB; BBL), according to CLSI guidelines (National Committee for Clinical Laboratory Standards. 2003. Methods for dilution antimicrobial susceptibility tests for bacteria that grow aerobically, 5th ed.; a approved standard M7-A6. National Committee for Clinical Laboratory Standards, Wayne, Pa.), with the following modifications: (i) for pneumococci CAMHB is supplemented with 5% (^v/v) horse serum; (ii) for Haemophilus influenzae CAMHB is supplemented with 5% (^v/v) Fildes enrichment (BBL) (Pankuch, G. A., Hoellman, D. B., Lin, G., Bajaksouzian, S., Jacobs, M. R., and Appelbaum, P. C. 1998. Activity of HMR 3647 compared to those of five agents against Haemophilus influenzae and Moraxella catarrhalis by MIC determination and time-kill assay. Antimicrob. Agents Chemother. 42:3032-3034). Microtiter plates are incubated at 35° C. in ambient air for 20 to 24 h, then inspected using an illuminated microtiter plate reader fitted with a magnifying mirror (MIC 2000; Cooke Laboratory Products, Alexandria, Va.). […]

For assay [4], the system named is Staphylococcus aureus and/or Staphylococcus epidermidis and/or Streptococcus pneumoniae. The assay can be described thus: MIC, summary statement for staphylococci and pneumococci. The settings on record: 'generally'. On the procedure: as §2

MIC data for ten molecules are collected here from patent publication US8927541B2, “Tricyclic antibiotics” (Basilea Pharmaceutica AG, priority 2009, dated 2015).

Bounds are passed on as bounds.

One may read the MIC as the lowest concentration that inhibits growth of the organism. A high value points to a need for much substance. As for `COc1ccc2ncc3c(c2c1)CC(N1CCC(NCc2ccc4c(c2)NC(=O)CS4)CC1)CO3` (stereo not drawn) [Example 2, 6-{[1-(6-methoxy-3,4-dihydro-2H-1-oxa-9-aza-phenanthrene-3-yl)-piperidin-4-ylamino]-methyl}-4H-benzo[1,4]thiazine-3-one], the MIC in assay [1] is at most 8 µg/mL.
`COc1ccc2ncc3c(c2n1)CC([C@H]1CC[C@H](NC(=O)c2ccc4c(c2)NC(=O)CS4)CC1)CN3` (relative stereo) [Example 76, 3-oxo-3,4-dihydro-2H-benzo[1,4]thiazine-6-carboxylic acid [trans-4-(6-methoxy-1,2,3,4-tetrahydro-1,5,9-triaza-phenanthren-3-yl)-cyclohexyl]-amide] came in with an MIC in assay [2] of over 8 µg/mL.
In assay [1], `COc1ccc2ncc3c(c2c1)CC(N1CCC(NC(=O)c2ccc4c(c2)NC(=O)CS4)CC1)CO3` (stereo not drawn) [Example 1, 3-oxo-3,4-dihydro-2H-benzo[1,4]thiazine-6-carboxylic acid [1-(6-methoxy-3,4-dihydro-2H-1-oxa-9-aza-phenanthrene-3-yl)-piperidin-4-yl]-amide] displayed a minimal inhibitory concentration (MIC) of at most 8 µg/mL.
As to `COc1ccc2ncc3c(c2n1)N(C)C(c1ccc(NC(=O)c2ccc4c(c2)NC(=O)CS4)cn1)CO3` (stereo not drawn) [Example 27, 3-oxo-3,4-dihydro-2H-benzo[1,4]thiazine-6-carboxylic acid [6-(6-methoxy-4-methyl-3,4-dihydro-2H-1-oxa-4,5,9-triaza-phenanthren-3-yl)-pyridin-3-yl]-amide], the MIC in assay [1] and in assay [3] was at most 8 µg/mL throughout.
`COc1ccc2ncc3c(c2n1)NC([C@H]1CC[C@H](NC(=O)c2ccc4c(c2)NC(=O)CO4)CC1)CO3` (relative stereo) [Example 35, 3-oxo-3,4-dihydro-2H-benzo[1,4]oxazine-6-carboxylic acid [trans-4-(6-methoxy-3,4-dihydro-2H-1-oxa-4,5,9-triaza-phenanthren-3-yl)-cyclohexyl]-amide]: the MIC in assay [1] and in assay [3] was at most 8 µg/mL each time.
In assay [2], `COc1ccc2ncc3c(c2n1)OC([C@H]1CC[C@H](NC(=O)c2ccc4c(c2)NC(=O)CS4)CC1)CN3C` (relative stereo) [Example 49, 3-oxo-3,4-dihydro-2H-benzo[1,4]thiazine-6-carboxylic acid [trans-4-(6-methoxy-1-methyl-2,3-dihydro-1H-4-oxa-1,5,9-triaza-phenanthren-3-yl)-cyclohexyl]-amide] returned an MIC of over 8 µg/mL.
In assay [2], `COc1ccc2ncc3c(c2c1)CC(n1cc(NCCSc2cccs2)cn1)CO3` (stereo not drawn) [Example 20, [1-(6-methoxy-3,4-dihydro-2H-1-oxa-9-aza-phenanthren-3-yl)-1H-pyrazol-4-yl]-[2-(thiophen-2-ylsulfanyl)-ethyl]-amine] returned an MIC of over 8 µg/mL.
In assay [4], `O=C1CSc2ccc(C(=O)N[C@H]3CC[C@H](C4COc5cnc6ccccc6c5C4)CC3)cc2N1` (relative stereo) [Example 50, 3-oxo-3,4-dihydro-2H-benzo[1,4]thiazine-6-carboxylic acid [trans-4-(3,4-dihydro-2H-1-oxa-9-aza-phenanthren-3-yl)-cyclohexyl]-amide] gave an MIC of at most 8 µg/mL.
In assay [1], `COc1ccc2ncc3c(c2c1)CC(n1cc(NC(=O)c2ccc4c(c2)NC(=O)CS4)cn1)CO3` (stereo not drawn) [Example 4, 3-oxo-3,4-dihydro-2H-benzo[1,4]thiazine-6-carboxylic acid [1-(6-methoxy-3,4-dihydro-2H-1-oxa-9-aza-phenanthrene-3-yl)-1H-pyrazol-4-yl]-amide] yielded an MIC of at most 8 µg/mL.
Still for that read-out and setting: with `COc1ccc2ncc3c(c2c1)CC(N1CCC(NCc2ccc4c(c2)NC(=O)CO4)CC1)CS3` (stereo not drawn) [Example 3, 6-{[1-(6-methoxy-3,4-dihydro-2H-1-thia-9-aza-phenanthrene-3-yl)-piperidin-4-ylamino]-methyl}-4H-benzo[1,4]oxazin-3-one] the figure was at most 8 µg/mL.
